Values of other authors as cited in patent US20260284015A1, “DOSAGE REGIME OF CRINECERFONT FOR TREATING CONGENITAL ADRENAL HYPERPLASIA” (Neurocrine Biosciences, Inc., priority 2023, published 2026).

Conditions: glucocorticoid dose conversion factor relative to hydrocortisone

Row | SMILES | Hydrocortisone dose equivalent conversion
1 | C[C@H]1C[C@@H]2[C@H]([C@@H](O)C[C@@]3(C)[C@H]2CC[C@]3(O)C(=O)CO)[C@@]2(C)C=CC(=O)C=C12 [Methylprednisolone] | 4×
2 | C[C@]12C=CC(=O)C=C1CC[C@@H]1[C@@H]2[C@@H](O)C[C@@]2(C)[C@H]1CC[C@]2(O)C(=O)CO [Prednisolone] | 4×
3 | C[C@@H]1C[C@H]2[C@@H]3CCC4=CC(=O)C=C[C@]4(C)[C@@]3(F)[C@@H](O)C[C@]2(C)[C@@]1(O)C(=O)CO [Dexamethasone] | 60×
